The values that follow come from patent US12268690B2, “Treatments for mutations in acute myeloid leukemia” (OREGON HEALTH & SCIENCE UNIVERSITY, priority 2018, dated 2025).

The test system of the assay is freshly isolated mononuclear cells from AML samples. The assay is described as follows: Ex vivo functional drug screen (MTS viability, AUC) on primary AML samples, compared by mutation or clinical group. The class given is cell-based, human.

As for `CC(C)n1nc(-c2ccc3oc(N)nc3c2)c2c(N)ncnc21` [INK-128], the “drug sensitivity mutant vs wild type (average difference in AUC; top left quadrant of volcano plot)” value runs as follows: (FLT3_ITD) “INK-128”; (NPM1:FLT3_ITD) “ink-128”.
Turning to `O=c1ncn2nc(Sc3ccc(F)cc3F)ccc2c1-c1c(Cl)cccc1Cl` [vx-745], the “drug sensitivity mutant vs wild type (average difference in AUC; top left quadrant of volcano plot)” value is reported as “vx-745” (FLT3_ITD), “vx-745” (FLT3_ITD:ASXL1), “vx-” (NPM1:IDH2) and “vx-745” (NPM1:SRSF2).
In the case of `COc1cc(N2CCC(N3CCN(C)CC3)CC2)ccc1Nc1ncc(Cl)c(Nc2ccccc2S(=O)(=O)C(C)C)n1` [NVP-TAE684], the “drug sensitivity mutant vs wild type (average difference in AUC; top left quadrant of volcano plot)” value runs as follows: (FLT3_ITD) “NVP-TAE684”; (FLT3_ITD:DNMT3A) “NVP-TAE684”; (FLT3_ITD:FLT3) “nvp-TAE684”; (FLT3_ITD:RUNX1) “nvp-TAE684”; (FLT3_ITD:TET2) “nvp-tae684”; (FLT3_ITD_IHD2) “Nvp-TAE684”. Also, the “drug sensitivity mutant vs wild type (average difference in AUC; top left quadrant of volcano plot)” value is “NVP-TAE684” (IDH2); “NVP-TAE684” (IDH2:FLT3); “NVP-TAE684” (NPM1); “NVP-TAE684” (NPM1:FLT3); “nvp-tae684” (NPM1:FLT3_ITD); “NVP-TAE684” (NPM1:FLT3_ITD:DNMT3A). The “drug sensitivity mutant vs wild type (average difference in AUC; top left quadrant of volcano plot)” value is, setting by setting: (NPM1:IDH2) “NVP-TAE684”; (NPM1:SRSF2) “nvp-TAE684”; (NPM1:SRSF2:IDH2) “NVP-”.
As for `Cn1c2ccccc2c2c3c(c4c5ccccc5n(CCC#N)c4c21)CNC3=O` [Go6976], where the note is “CBFB.MYH11”, the “drug sensitivity mutant vs wild type (average difference in AUC; top left quadrant of volcano plot)” value is “Go6976”.
For `O=C(NOCC1CC1)c1ccc(F)c(F)c1Nc1ccc(I)cc1Cl` [CI-1040], the “drug sensitivity mutant vs wild type (average difference in AUC; top left quadrant of volcano plot)” value was “CI-1040 (PD184352)” (DNMT3A:NRAS), “CI-1040” (NPM1:DNMT3A:NRAS), “CI-1040 (PD184352)” (NPM1:NRAS) and “CI-1040” (NRAS).
Consider `Cc1cc(Nc2nc(N[C@@H](C)c3ncc(F)cn3)ncc2Cl)n[nH]1` [AZD1480], for which, for the setting “NPM1:SRSF2:IDH2”, the “drug sensitivity mutant vs wild type (average difference in AUC; top left quadrant of volcano plot)” value was “AZD1480”.
Consider `NC(=O)c1cnc(N[C@@H]2CCCC[C@@H]2N)nc1Nc1cccc(-n2nccn2)c1` [PRT062607], for which the “drug sensitivity mutant vs wild type (average difference in AUC; top left quadrant of volcano plot)” value (NPM1:DNMT3A) is “PRT062607”.
With `C[C@@H]1CCN(C(=O)CC#N)C[C@@H]1N(C)c1ncnc2[nH]ccc12` [Tofacitinib], the “sensitivity to JAK kinase inhibitors, mutant versus wild type (average AUC difference, one-way ANOVA)” value by setting is: (BCOR mutation alone or co-mutation of BCOR with DNMT3A or SRSF2) “no difference in sensitivity”; (co-mutation of BCOR with RUNX1) “increased sensitivity”. For the same molecule, the “drug sensitivity mutant vs wild type (average difference in AUC; top left quadrant of volcano plot)” value (ZRSR2) was “Tofacitinib”.
For the molecule `CCn1c(-c2nonc2N)nc2c(C#CC(C)(C)O)ncc(OC[C@H]3CCCNC3)c21` [GSK690693], the “drug sensitivity mutant vs wild type (average difference in AUC; top left quadrant of volcano plot)” value (MLLT3.KMT2A) is given as “GSK690693”.
Regarding `COc1cc(Oc2ccnc3cc(OC)c(OC)cc23)ccc1NC(=O)NC(C)c1nccs1` (centres unmarked) [KI20227], the “drug sensitivity mutant vs wild type (average difference in AUC; top left quadrant of volcano plot)” value (NPM1:SRSF2:IDH2) is on record as “KI20227”.
With `C=CC(=O)Nc1cc2c(Nc3ccc(F)c(Cl)c3)ncnc2cc1OCCCN1CCOCC1` [canertinib], the “drug sensitivity mutant vs wild type (average difference in AUC; top left quadrant of volcano plot)” value by setting is: (FLT3_ITD) “canertinib”; (FLT3_ITD:TET2) “canertinib”; (FLT3_ITD_IHD2) “canertinib”; (NPM1:FLT3_ITD) “canertinib”; (SMC1A) “canertinib”.
On to `Nc1cccc2c1CN(C1CCC(=O)NC1=O)C2=O` (centres unmarked) [Lenalidomide], for which the “drug sensitivity mutant vs wild type (average difference in AUC; top left quadrant of volcano plot)” value runs as follows: (NPM1) “Lenalidomide”; (NPM1:SRSF2) “lenalidomide”.
Regarding `COc1cc2nccc(Oc3ccc(NC(=O)NC4CC4)c(Cl)c3)c2cc1C(N)=O` [Lenvatinib], the “drug sensitivity mutant vs wild type (average difference in AUC; top left quadrant of volcano plot)” value by setting is: (DNMT3A) “Lenvatinib”; (FLT3_ITD) “lanvatinib”; (IDH2) “Lenvatinib”; (NPM1) “Levatinib”; (NPM1:DNMT3A) “Lenvatinib”; (NPM1:DNMT3A:FLT3) “lenvantinib”. Further, the “drug sensitivity mutant vs wild type (average difference in AUC; top left quadrant of volcano plot)” value is “lenvatinib” (NPM1:FLT3_ITD), “lenvatinib” (NPM1:IDH2), “lenvatinib” (NPM1:SRSF2) and “Lenvatinib” (NPM1:TET2: DNMT3A).
`CCOc1cc2ncc(C#N)c(Nc3ccc(F)c(Cl)c3)c2cc1NC(=O)/C=C/CN(C)C` [Pelitinib]: the “drug sensitivity mutant vs wild type (average difference in AUC; top left quadrant of volcano plot)” value is, setting by setting: (FLT3_ITD) “pelitinib”; (NPM1) “Pelitinib”; (NPM1:FLT3_ITD) “pelitinib”.
Take `CS(=O)(=O)c1ccc(C(=O)Nc2ccc(Cl)c(-c3ccccn3)c2)c(Cl)c1` [Vismodegib]: where the note is “WT1”, the “drug sensitivity mutant vs wild type (average difference in AUC; top left quadrant of volcano plot)” value is listed as “Vismodegib”.
As for `CN(NC(=O)CC(=O)NN(C)C(=S)c1ccccc1)C(=S)c1ccccc1` [elesclemol], the “drug sensitivity of mutant cases” value (TP53 mutant cases) was “trended more sensitive”.
With `Cn1c(Nc2ccc(C(F)(F)F)cc2)nc2cc(Oc3ccnc(-c4ncc(C(F)(F)F)[nH]4)c3)ccc21` [RAF265, 1-methyl-5-((2-(5-(trifluoromethyl)-1H-imidazol-2-yl)pyridin-4-yl)oxy)-N-(4-(trifluoromethyl)phenyl)-1H-benzo[d]imidazol-2-amine], the “drug sensitivity mutant vs wild type (average difference in AUC; top left quadrant of volcano plot)” value reads like this: (BCOR) “RAF265”; (WT1) “RAF265”.
Take `Clc1ccc(Nc2nnc(Cc3ccncc3)c3ccccc23)cc1` [Vatalanib]: the “drug sensitivity mutant vs wild type (average difference in AUC; top left quadrant of volcano plot)” value is listed as “vatalanib” (FLT3_ITD); “vatalanib” (FLT3_ITD:ASXL1); “Vatalanib” (MLLT3.KMT2A); “vatalanib” (NPM1:FLT3_ITD); “Vatalanib” (SMC1A).
